Patent US20110294728A1, “Antiviral Polypeptides” (priority 2008, published 2011)
Like-named read-outs stand apart in the source and are kept apart here. Where no end group is shown, it is not given here.

Legend:
IN/DNA complexes [1] = biological target: T1, IN/DNA complexes (Human immunodeficiency virus type 1 group M subtype B, UniProt P04585); assay: DNA-binding of integrase, fluorescence anisotropy; type: biochemical, HIV-1
Description: (§1) The simultaneous measurement of integrase-DNA interaction and subsequent 3′-processing activity by steady-state fluorescence anisotropy was performed as described in Guiot et al. (2006). […] After the initial DNA-binding step (performed at 25° C.), the 3′-processing activity was measured at 37° C. by fixed-time experiments: The reaction was stopped at varying times by adding SDS (0.25% final) which disrupts all IN-DNA complexes in the sample. The IN-mediated cleavage of the terminal GT dinucleotide (labeled by fluorescein on the 3′-end) leads to a significant decrease of r as compared to the r value corresponding to the fluorescein-labeled unprocessed DNA substrate. The fraction of released dinucleotide is calculated by using Eq. (1): […]

HIV-1-LAI strain = system: HIV-1-LAI strain
Description: The anti-HIV activities of the peptides were assayed according to the methods described in Roisin et al. (2004). Phytohemagglutinin-P(PHA-P)-activated peripheral blood mononuclear cells (PBMC) treated by increasing concentrations of peptide (from 100 to 0.1 nM), one hour later, were infected with hundred 50% tissue culture infectious doses (TCID50) per 100,000 cells of the HIV-1-LAI strain (Barre-Sinoussi et al., 1983). This virus was amplified in vitro on PHA-P-activated PBMC. Viral stock was titrated using PHA-P-activated PBMC, and 50% TCID50 were calculated using Kärber's formula (Kärber, 1931). Samples were maintained throughout the culture, and cell supernatants were collected at day 7 post-infection and stored at −20° C. Viral replication was measured by quantifying reverse transcriptase (RT) activity in cell culture supernatants. In parallel, cytotoxicity of the compounds was evaluated in uninfected PHA-P-activated PBMC by colorimetric 3-(4-5 dimethylthiazol-2-yl)2,5diphenyl tetrazolium bromite (MTT) assay on day 7 (as described in Mossmann, 1983). Experiments were performed in triplicate and repeated with another blood donor. Data analyses were performed using SofiMax® Pro 4.6 microcomputer software: percent of inhibition of RT activity or of cell viability were plotted vs concentration and fitted with quadratic curves; 50% effective doses (ED50) and cytotoxic doses (CD50) were calculated.
In order to avoid any limitation due to the poor ability of peptides to cross cellular membranes, they were associated to the peptide-based nanoparticle delivery system Pep-1 (SEQ ID NO: 29), at a 1/10 molar ratio.

HIV-1 strain 2165 = conditions: peptide with Pep-1 or Pep-3 at ratio 20/1, combinations with Pep-3
HIV-1 strain NDK = conditions: peptide with Pep-1 or Pep-3 at ratio 20/1, combinations with Pep-3
HIV-1 strain BH10 = conditions: peptide with Pep-1 or Pep-3 at ratio 20/1, combinations with Pep-3
HIV-1 integrase [2] = biological target: T2, HIV-1 integrase (Human immunodeficiency virus type 1 group M subtype B, UniProt P04585); assay: biochemical
T2 construct: Integrase is a 32 kDA viral protein that is biologically active under a multimeric form
Description: as §1

HIV-1 RT = biological target: T3, HIV-1 RT (Human immunodeficiency virus type 1 group M subtype B, UniProt P03366); assay: biochemical
T3 construct: The heterodimeric p66/p51 RT was eluted with an imidazole gradient; p66 and p51 derived from p66 by proteolytic cleavage of the C-terminal RNAse H domain; made in house; host or cells: E. coli (M15 for the His-tagged subunits)
Outline: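 HIV-1 RT (20 nM, as added) was preincubated 23 h with increasing peptide concentrations, then reaction buffer was added (Tris pH 8.0, KCl, MgCl2, DTT, 0.15 µM poly(rA)-(dT)15, 15 µM dTTP plus 3H-dTTP, as added) for 30 min at 37 °C. Incorporated 3H was measured after TCA precipitation and filtration by scintillation counting; mean of three experiments.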

HIV-1 integrase [3] = biological target: T2, HIV-1 integrase; assay: biochemical; type: binding
Description: Fluorescein-labeled peptides (40 nM) were mixed with varying concentrations of integrase in 20 mM Tris pH 7.2, 50 mM NaCl, 10 mM MgCl2, and the r values were recorded.
Effect of the different peptides on the integrase (IN) activity, DNA binding and IN/DNA dissociation were evaluated as described in Example III.1 above, using fluorescence polarization and anisotropy measurements. Binding constant of the peptide for IN was determined by steady state fluorescence and anisotropy.

HIV-1 strain RF = conditions: strain RF (RP in Table 5); peptide with Pep-1 or Pep-3 at ratio 20/1; combinations with Pep-3
IN/DNA complexes [4] = biological target: T1, IN/DNA complexes; assay: Dissociation of pre-formed IN-DNA substrate complexes; type: biochemical, HIV-1
Description: For dissociation experiments, IN-DNA substrate complexes were pre-formed at 25° C. before addition of peptides. The peptide-mediated dissociation of complexes was then studied at the same temperature by measuring the decrease in the r value as a function of time.

HIV-1 strain 2914 = conditions: peptide with Pep-1 or Pep-3 at ratio 20/1, combinations with Pep-3
HIV-1 strain 1650 = conditions: peptide with Pep-1 or Pep-3 at ratio 20/1, combinations with Pep-3
[5] = read-out: EC50 HIV-1 lai, Table 10

Sequence: GTKWLTEVWPL [Peptide P16]
- EC50 (IN/DNA complexes [1]): 8000 nM
- EC50 (HIV-1-LAI strain; [5]): 5.9 nM
- IC50 (HIV-1 strain 2165): 2.7 nM
- IC50 (HIV-1 strain NDK): 2.9 nM
- IC50 (HIV-1 strain BH10): 5.9 nM
- EC50 (HIV-1 integrase [2]): 10000 nM
- Ki (HIV-1 integrase [2]): 10000 nM
- Ki (HIV-1 RT): 14400 nM
- reduction of efficiency (higher Ki) relative to PAW (HIV-1 RT; relative to PAW): 20 fold
- Kd (HIV-1 integrase [3]): 0.12 µM
- IC50 (HIV-1 strain RF): 10.9 nM
- EC50 (IN/DNA complexes [4]): 11000 nM
- IC50 (HIV-1 strain 2914): 1.7 nM
- IC50 (HIV-1 strain 1650): 7.5 nM

Sequence: GTKWLTEWIPLTAE [Peptide P27]
- EC50 (IN/DNA complexes [1]): > 100000 nM
- EC50 (HIV-1-LAI strain; PBMC, HIV-1 LAI, day 7, /Pep-1 = associated to Pep-1 at 1/10 molar ratio): > 1000 nM
- EC50 (HIV-1-LAI strain; [5]): 0.21 nM
- IC50 (HIV-1-LAI strain; read-out: IC50, antiviral activity, text b123, peptide with Pep-1): < 0.32 nM
- IC50 (HIV-1 strain 2165): 2.6 nM
- IC50 (HIV-1 strain NDK): 0.3 nM
- IC50 (HIV-1 strain BH10): 1.4 nM
- EC50 (HIV-1 integrase [2]): > 100000 nM
- Ki (HIV-1 integrase [2]): > 100000 nM
- Ki (HIV-1 RT): 50 ± 0.01 nM
- increase of efficiency relative to PAW (HIV-1 RT; relative to PAW): 14 fold
- Kd (HIV-1 integrase [3]): > 100 µM
- Kd (HIV-1 integrase [3]; read-out: Kd IN binding, Table 10, cell prints μM): > 100 µM
- IC50 (HIV-1 strain RF): 1.5 nM
- EC50 (IN/DNA complexes [4]): > 100000 nM
- IC50 (HIV-1 strain 2914): 0.2 nM
- IC50 (HIV-1 strain 1650): 0.8 nM
